What was measured:
Blood Free-Fatty-Acid = Blood Free-Fatty-Acid (B.F.F.A.) lowering activity in fasted rats (oral); assay type: in vivo, rat (male); settings: 100 mg/kg p.o.; for B.F.F.A. Level, 1 hr after / B.F.F.A. Level, 3 hr after / B.F.F.A. Level, 5 hr after: fasted rats; for B.F.F.A. Level, Total: total of 1, 3 and 5 hr values
Procedure: Several groups of male rats weighing 200 to 250 g, each group consisting of 5 rats, were used in the test. Assay and control groups were fasted during 24 hours and then orally given 5 % gum arabic suspension with and without the test compound (100 mg/kg p.o.), respectively. All animals tested were decapitated 1 hour after, 3 hours after, or 5 hours after the treatment, and blood samples were drawn for B.F.F.A. value determination. A percentage factor, as B.F.F.A. Level, was determined according to the Itaya-Ui method [K. Itaya, et al.: J. Lipid Research, Vol. 6, 18 (1965)], calculated by the following equation: [formula] b) Result
B.F.F.A. Levels are shown in Table II, together with + and - marks and the total of the three values for each compound.

in vivo = settings: mouse, oral, mice, 24 hours observation
Excerpt: For each dose 10 male mice were used, their body-weights ranging from 19 to 21 grams. […] The LD50 means the amount of the test compound being expected to kill just half the number of the animals treated.

blood-sugar = assay: Hypoglycemic activity in alloxan-treated rats (Blood-Sugar-Level, oral); assay type: in vivo, rat (alloxan-treated adult male); settings: for Percentage of Blood-Sugar-Level (B.S.L.), 1 hr after / Percentage of Blood-Sugar-Level (B.S.L.), 3 hr after / Percentage of Blood-Sugar-Level (B.S.L.), 5 hr after: alloxan rats, change vs control; for Percentage of Blood-Sugar-Level (B.S.L.), Total: total of 1, 3 and 5 hr percentages
Procedure: Assay and control groups of rats were used, each group consisting of 5 adult male rats weighing 200 to 250 g and showing about 250 to 350 mg/dl-blood as the initial blood-sugar value, after being treated once with 50 mg/kg of alloxan (i.v.) one week before the assay. The assay and control groups were orally administered a 5 % gum arabic suspension with and without the test compound, respectively. Measurement of the absolute blood-sugar value was carried out thrice (i.e. 1 hour after, 3 hours after, and 5 hours after administration) and the values were compared with those of the control group. Blood-sugar values were determined by an assay technique using the marketed enzymatic glucose reagent: Glucostat (Trade Mark of Worthington Biochemical Corporation, Freehold, N.J., U.S.A.).
In effect, the marks + and -correspond to increasing and decreasing
tendency of B.S.L., respectively, after eliminating the difference in
value between the assay and control groups.

## CCCCNC(=O)NC(=O)c1cc(C)on1 [N'-n-butyl-N-(5-methyl-3-isoxazolylcarbonyl)urea]
Blood Free-Fatty-Acid
  B.F.F.A. Level, 1 hr after: -59%
  B.F.F.A. Level, 3 hr after: -59%
  B.F.F.A. Level, 5 hr after: -30%
  B.F.F.A. Level, Total: -129%

## Cc1cc(C(=O)NC(=O)NC(C)C)no1 [N'-i-propyl-N-(5-methyl-3-isoxazolylcarbonyl)urea]
In vivo
  LD50 at 24 h: 7000 to 8000 mg/kg
Blood Free-Fatty-Acid
  B.F.F.A. Level, 1 hr after: -75%
  B.F.F.A. Level, 3 hr after: -67%
  B.F.F.A. Level, 5 hr after: -49%
  B.F.F.A. Level, Total: -191%

## Cc1cc(C(=O)NC(=O)NC2CCCCC2)no1 [N'-cyclohexyl-N-(5-methyl-3-isoxazolylcarbonyl)urea]
Blood Free-Fatty-Acid
  B.F.F.A. Level, 1 hr after: -27%
  B.F.F.A. Level, 3 hr after: -34%
  B.F.F.A. Level, 5 hr after: -23%
  B.F.F.A. Level, Total: -84%

## Cc1cc(C(=O)NC(=N)N)no1 [Compound 3, 1-(5-methyl-3-isoxazolylcarbonyl)guanidine]
In vivo
  LD50 at 24 h: 2000 to 3000 mg/kg
Blood Free-Fatty-Acid
  B.F.F.A. Level, 1 hr after: -70%
  B.F.F.A. Level, 3 hr after: -15%
  B.F.F.A. Level, 5 hr after: -8%
  B.F.F.A. Level, Total: -93%
blood-sugar; 10 mg/kg dose
  Percentage of Blood-Sugar-Level (B.S.L.), 1 hr after: -11%
  Percentage of Blood-Sugar-Level (B.S.L.), 3 hr after: -39%
  Percentage of Blood-Sugar-Level (B.S.L.), 5 hr after: -32%
  Percentage of Blood-Sugar-Level (B.S.L.), Total: -82%
blood-sugar; 100 mg/kg dose
  Percentage of Blood-Sugar-Level (B.S.L.), 1 hr after: -30%
  Percentage of Blood-Sugar-Level (B.S.L.), 3 hr after: -56%
  Percentage of Blood-Sugar-Level (B.S.L.), 5 hr after: -52%
  Percentage of Blood-Sugar-Level (B.S.L.), Total: -138%

## Cc1cc(C(=O)N(C)C(=O)N(C)C)no1 [Compound 5, N,N',N'-trimethyl-N-(5-methyl-3-isoxazolylcarbonyl)urea]
blood-sugar; 10 mg/kg dose
  Percentage of Blood-Sugar-Level (B.S.L.), 1 hr after: -19%
  Percentage of Blood-Sugar-Level (B.S.L.), 3 hr after: -39%
  Percentage of Blood-Sugar-Level (B.S.L.), 5 hr after: -39%
  Percentage of Blood-Sugar-Level (B.S.L.), Total: -97%
blood-sugar; 100 mg/kg dose
  Percentage of Blood-Sugar-Level (B.S.L.), 1 hr after: -24%
  Percentage of Blood-Sugar-Level (B.S.L.), 3 hr after: -40%
  Percentage of Blood-Sugar-Level (B.S.L.), 5 hr after: -40%
  Percentage of Blood-Sugar-Level (B.S.L.), Total: -104%

## Cc1cc(C(=O)NC(N)=S)no1 [N-(5-methyl-3-isoxazolylcarbonyl)thiourea]
Blood Free-Fatty-Acid
  B.F.F.A. Level, 1 hr after: -60%
  B.F.F.A. Level, 3 hr after: -36%
  B.F.F.A. Level, 5 hr after: +13%
  B.F.F.A. Level, Total: -83%

## Cc1cc(C(=O)NC(N)=O)no1 [N-(5-methyl-3-isoxazolylcarbonyl)urea]
In vivo
  LD50 at 24 h: > 10000 mg/kg

## CNC(=O)N(C)C(=O)c1cc(C)on1 [Compound 4, N,N'-dimethyl-N-(5-methyl-3-isoxazolylcarbonyl)urea]
blood-sugar; 10 mg/kg dose
  Percentage of Blood-Sugar-Level (B.S.L.), 1 hr after: -15%
  Percentage of Blood-Sugar-Level (B.S.L.), 3 hr after: -36%
  Percentage of Blood-Sugar-Level (B.S.L.), 5 hr after: -20%
  Percentage of Blood-Sugar-Level (B.S.L.), Total: -71%
blood-sugar; 100 mg/kg dose
  Percentage of Blood-Sugar-Level (B.S.L.), 1 hr after: -22%
  Percentage of Blood-Sugar-Level (B.S.L.), 3 hr after: -51%
  Percentage of Blood-Sugar-Level (B.S.L.), 5 hr after: -59%
  Percentage of Blood-Sugar-Level (B.S.L.), Total: -132%

## CCCCNC(=O)NS(=O)(=O)c1ccc(C)cc1 [Compound 6, Tolbutamide, reference compound]
Blood Free-Fatty-Acid
  B.F.F.A. Level, 1 hr after: -40%
  B.F.F.A. Level, 3 hr after: -45%
  B.F.F.A. Level, 5 hr after: 0%
  B.F.F.A. Level, Total: -85%
blood-sugar; 100 mg/kg dose
  Percentage of Blood-Sugar-Level (B.S.L.), 1 hr after: -9%
  Percentage of Blood-Sugar-Level (B.S.L.), 3 hr after: -26%
  Percentage of Blood-Sugar-Level (B.S.L.), 5 hr after: -23%
  Percentage of Blood-Sugar-Level (B.S.L.), Total: -58%

## CCc1cc(C(=O)NC(=O)NC(C)C)no1 [Compound 1, N'-i-propyl-N-(5-ethyl-3-isoxazolylcarbonyl)urea]
blood-sugar; 10 mg/kg dose
  Percentage of Blood-Sugar-Level (B.S.L.), 1 hr after: -8%
  Percentage of Blood-Sugar-Level (B.S.L.), 3 hr after: +2%
  Percentage of Blood-Sugar-Level (B.S.L.), 5 hr after: +2%
  Percentage of Blood-Sugar-Level (B.S.L.), Total: -4%
blood-sugar; 100 mg/kg dose
  Percentage of Blood-Sugar-Level (B.S.L.), 1 hr after: -54%
  Percentage of Blood-Sugar-Level (B.S.L.), 3 hr after: -63%
  Percentage of Blood-Sugar-Level (B.S.L.), 5 hr after: -43%
  Percentage of Blood-Sugar-Level (B.S.L.), Total: -160%

## Cc1cc(C(=O)NC(=O)N(C)C)no1 [Compound 2, N',N'-dimethyl-N-(5-methyl-3-isoxazolylcarbonyl)urea]
blood-sugar; 10 mg/kg dose
  Percentage of Blood-Sugar-Level (B.S.L.), 1 hr after: -45%
  Percentage of Blood-Sugar-Level (B.S.L.), 3 hr after: -59%
  Percentage of Blood-Sugar-Level (B.S.L.), 5 hr after: -29%
blood-sugar; 100 mg/kg dose
  Percentage of Blood-Sugar-Level (B.S.L.), 1 hr after: -33%
  Percentage of Blood-Sugar-Level (B.S.L.), 3 hr after: -59%
  Percentage of Blood-Sugar-Level (B.S.L.), 5 hr after: -59%
  Percentage of Blood-Sugar-Level (B.S.L.), Total: -151%

Reference: patent publication US4014876A, “Isoxazole derivatives” (Shionogi & Co., Ltd., priority 1969, dated 1977)
